# pIC50: −log10 of the molar value.
# Biological target: T1, Aurora A (Homo sapiens, UniProt O14965)
# T1 construct: gene AURKA
# T1 sequence (O14965 1-403): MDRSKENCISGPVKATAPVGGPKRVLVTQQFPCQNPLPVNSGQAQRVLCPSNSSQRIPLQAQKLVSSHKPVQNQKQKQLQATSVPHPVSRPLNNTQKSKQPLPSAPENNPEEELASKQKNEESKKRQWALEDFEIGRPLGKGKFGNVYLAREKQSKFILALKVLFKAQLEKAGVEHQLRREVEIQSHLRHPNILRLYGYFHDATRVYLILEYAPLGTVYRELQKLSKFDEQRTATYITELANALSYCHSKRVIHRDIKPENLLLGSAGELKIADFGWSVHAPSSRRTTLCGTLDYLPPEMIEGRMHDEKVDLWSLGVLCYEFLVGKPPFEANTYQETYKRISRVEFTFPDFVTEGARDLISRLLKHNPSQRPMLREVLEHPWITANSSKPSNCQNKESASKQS
# Experiment: microfluidic mobility shift kinase assay; also cellular thermal shift assay (Aurora A levels reduced with GNA at […]°C)
# Format: biochemical
smiles,measurement,value
"CC(C)=CCC/C(C)=C/Cc1c(O)c(CC=C(C)C)c2c(c1O)C(=O)C1=C[C@@H]3C[C@H]4C(C)(C)O[C@@](C/C=C(/C)C(=O)O)(C3=O)[C@@]14O2 [GNA, gambogenic acid]",pIC50,5.85

# Source: PMC8526855, “Gambogenic Acid Induces Endoplasmic Reticulum Stress in Colorectal Cancer via the Aurora A Pathway” (Frontiers in Cell and Developmental Biology, 2021)
